Test results taken from patent US9446064B2, “Combination therapy for treating cancer” (Epizyme, Inc., priority 2013, dated 2016).

How the values were obtained:
[1] = test system: MOLM-13 (MLL-AF9) cells; assay: Combination proliferation study with Compound A2 (Cell Titer Glo, Chou-Talalay combination index); format: cell-based; details: 7 day cotreatment
Procedure: (§1) The acute myelogenous leukemia cell lines MV4-11 (MLL-AF4) and MOLM-13 (MLL-AF9) were obtained from American Type Culture Collection (ATCC; Rockville, Md.) and Deutsche Sammlung von Mikroorganismen and Zellkulturen (DSMZ; Braunschweig, Germany) respectively.
(§2) Initial proliferation studies were performed to determine the IC50 of a given compound in each cell line.
(§3) Compounds were evaluated for synergy in the co-treatment phase by testing the compounds in a concentration range which was bracketed around their IC50 values. […] DMSO concentration was kept at 0.1% v/v.
(§4) Further, strong synergism is achieved when the CI value falls below 0.3.

[2] = test system: MV4-11 (MLL-AF4) cells; assay: as above; format: cell-based; details: 7 day cotreatment
Procedure: as §1, §2, §3, §4

SMILES | Combination effect with Compound A2 (combination index) [1] | Combination effect with Compound A2 (combination index) [2]
N[C@@H]1C[C@H]1c1ccccc1 (racemic) [Tranylcypromine] | synergy | synergy
Nc1ccn([C@@H]2O[C@H](CO)[C@@H](O)[C@@H]2O)c(=O)n1 [Ara-C] | – | Synergy (A combination index less than one indicates synergy)
COc1cc2c(cc1-c1c(C)noc1C)ncc1[nH]c(=O)n([C@H](C)c3ccccn3)c12 [IBET-151] | – | Synergy (A combination index less than one indicates synergy)
CC1(C)CCC(c2ccc(Cl)cc2)=C(CN2CCN(c3ccc(C(=O)NS(=O)(=O)c4ccc(N[C@H](CCN5CCOCC5)CSc5ccccc5)c(S(=O)(=O)C(F)(F)F)c4)cc3)CC2)C1 [Navitoclax] | synergy | synergy
CC(C)(C)c1cc(NC(=O)Nc2ccc(-c3cn4c(n3)sc3cc(OCCN5CCOCC5)ccc34)cc2)no1 [Quizartinib] | – | synergy
